The values below come from article PMC6222450, “Computer-Aided Studies for Novel Arylhydantoin 1,3,5-Triazine Derivatives as 5-HT6 Serotonin Receptor Ligands with Antidepressive-Like, Anxiolytic and Antiobesity Action In Vivo” (Molecules : A Journal of Synthetic Chemistry and Natural …, 2018).

Data set [1] concerns the target T1, human serotonin 5-HT6R (Homo sapiens, UniProt P50406).
T1 construct: expressed in transfected cells; host or cells: HEK-293
Kind of data set: Radioligand binding assay, 5-HT6R, [3H]-LSD displacement. The procedure: Five selective radioligands were employed (Table 1).
Radioligand binding assays were used to determine the affinity of the synthesized compounds for human serotonin 5-HT6R, which were stably expressed in HEK-293 cells. […] Each compound was tested in triplicate at 7 to 8 different concentrations (10^−11 to 10^−4 M). The inhibition constants (Ki) were calculated using the Cheng–Prusoff equation [40], and the results are expressed as the mean of at least two independent experiments.

Data set [2] can be described thus: Lipophilicity by RP-TLC. The class given is physicochemical. The conditions noted are these: RP-18 TLC, water/methanol, extrapolated to 100% water. The procedure: For comparison, the active arylmethyl-triazine compounds previously found (1–3) were also examined. Stationary phase RP-18 and mixtures of water/methanol […] as a mobile phase were employed. RM values were calculated from the RF data obtained. […] The regression coefficients (r^2) determined for all compounds were higher than 0.95. On the basis of the linear relationship between RM values and the volume fraction of methanol, values of RM0 in the systems analyzed corresponding to 100% of water were obtained by extrapolation. RM0 values received for the compounds tested ranged from 3.14 to 4.49 (Figure 6).
The mobile phases were prepared by mixing the respective amounts of water and organic modifier (methanol) in a range from 40 to 90% (v/v) in 5% increments. TLC was performed on Silica gel 60RP-18 F254 plates (7 × 10 cm) plates (Merck, Darmstadt, Germany). Methanol was used to prepare the solutions of the substances. Solutions (10 µL) of the analyzed compounds were applied to the plates as 5 mm bands, 10 mm apart and 10 mm from the lower edge and sides of the plates, by using Linomat V applicator (Camag, Basel, Switzerland). The vertical chamber (Sigma–Aldrich, St. Louis, MI, USA), 20 × 10 × 18 cm in size, was saturated with mobile phase for 20 min. Development was carried out over 9 cm from the starting line at a temperature of 20 °C. Next, the plates were dried at room temperature, and the spots were observed under ultraviolet light at 254 nm and/or 366 nm (UV lamp, Camag, Basel, Switzerland). In each case, sharp and symmetric spots without a tendency for tailing were obtained. Each experiment was run in triplicate and mean RF (retardation factor) values were calculated.
Starting from the RF values, the RM parameters were computed as described in the formula:RM = log(1/RF − 1)
The linear correlations between the RM values of the substances and the concentration of methanol in mobile phases were calculated for each compound with the Soczewiński-Wachtmeister equation [22]:RM = RM0 + aC where C is the concentration of the organic modifier (in %) in the mobile phase, a is the slope, and RM0 is the […].

The test system of data set [3] is HEK-293 cells. Put plainly: Toxicity in vitro, MTS test. The format is cell-based. The conditions noted are these: 0.1 μM–100 μM, 72 h. The procedure: The preliminary evaluation of the safety profile for the most promising 5-HT6R ligands 6 and 26 was performed in vitro with the HEK-293 eukaryotic cell line. The compounds examined were dissolved in culture growth media and incubated with cells for 72 h. Next, the MTS test was applied to determine the viability of the cells. […] The reference cytostatic drug doxorubicin (DX) at the very low concentration 1 μM was also cytotoxic.
The ATCC CRL 1573 HEK-293 cells were seeded in 96-well plates (NuncTM) at a concentration of 1 × 10^4 cells/well in 200 μL in Dulbecco’s Modified Eagle’s Medium (Gibco®) supplemented with 10% fetal bovine serum (Gibco®), and cultured at 37 °C in an atmosphere containing 5% of CO2 for 24 h to reach 60% confluence. The 10 mM stock solutions of 5-HT6R ligands 6 and 26 in DMSO were diluted into fresh growth medium and added into the microplates at the final concentrations 0.1 μM –100 μM. […] The cytostatic drug doxorubicin (Sigma-Aldrich) at the concentration 1 μM was used as a reference. After 72 h of incubation 20 μL of CellTiter 96® AQueous Non-Radioactive Cell Proliferation Assay (MTS) (Promega®) was added to each well and the cells were incubated under the same conditions for 2 h. The absorbance of the samples was measured using a microplate reader EnSpire (PerkinElmer, Waltham, MA, USA) at 490 nm. Statistical significance was analyzed by GraphPad Prism™ software v. 5.01 (GraphPad Software, La Jolla, CA, USA) using One-way ANOVA and Bonferroni’s Multiple Comparison Post Test.

Where “and” joins values, the source holds several entries; their conditions need not be identical. Equal entries are not always repeated.

T1 sequence (P50406 whole entry): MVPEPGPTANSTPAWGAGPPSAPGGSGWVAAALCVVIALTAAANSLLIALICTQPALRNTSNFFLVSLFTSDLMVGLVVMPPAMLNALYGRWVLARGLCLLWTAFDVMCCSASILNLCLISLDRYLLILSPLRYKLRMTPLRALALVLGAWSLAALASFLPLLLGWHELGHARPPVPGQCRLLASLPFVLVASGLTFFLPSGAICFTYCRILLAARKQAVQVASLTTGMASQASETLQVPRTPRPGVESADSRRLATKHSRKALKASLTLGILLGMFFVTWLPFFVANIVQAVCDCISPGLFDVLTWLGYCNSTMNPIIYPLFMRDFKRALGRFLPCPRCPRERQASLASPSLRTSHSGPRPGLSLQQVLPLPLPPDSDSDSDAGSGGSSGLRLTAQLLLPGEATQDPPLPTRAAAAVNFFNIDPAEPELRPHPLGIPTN

As for `CN1CCN(c2nc(N)nc(CN3C(=O)NC(C)(c4ccc5ccccc5c4)C3=O)n2)CC1` (centres unmarked) [Compound 26, 3-((4-Amino-6-(4-methylpiperazin-1-yl)-1,3,5-triazin-2-yl)methyl)-5-methyl-5-(naphthalen-2-yl)imidazolidine-2,4-dione], the “selectivity towards competitive G-protein coupled receptors” value in data set [1] (5-HT6R vs 5-HT1A, 5-HT2A, 5-HT7, D2) is reported as 6–197 fold. In addition, the “selectivity over 5-HT7R” value in data set [1] (5-HT6R vs 5-HT7R) is 6 fold. The Ki in data set [1] (human receptor stably expressed in HEK-293 cells, mean of at least two independent experiments, read-out: Ki 5-HT6 [3H]-LSD) was < 0.2 µM and 0.087 µM. Besides, the RM0 in data set [2] is listed as 3.76. The “toxicity in HEK-293 cells” value in data set [3] is “no significant toxicity”.
